Laboratory results reported in patent US20100056526A1, “HETEROMONOCYCLIC COMPOUND AND USE THEREOF” (Takeda Pharmaceutical Company Limited, priority 2006, published 2010).

Experiments:
[1] = molecular target: T1, PPARγ (Homo sapiens, UniProt P37231); test: Evaluation of PPARγ activating action (luciferase reporter in PPARγ:RXRα:4ERPP/CHO-K1 cells); assay type: cell-based; settings: CHO-K1, 24 h; test compound 10^−6 M; luciferase activity relative to control compound X (1 μM) = 100%, non-administration group = 0%; read-out: PPARγ activating action (activation % (10^−6 M))
T1 construct: expressed in transfected cells; host or cells: CHO-K1
T1 sequence (P37231 1-477 isoform P37231-2): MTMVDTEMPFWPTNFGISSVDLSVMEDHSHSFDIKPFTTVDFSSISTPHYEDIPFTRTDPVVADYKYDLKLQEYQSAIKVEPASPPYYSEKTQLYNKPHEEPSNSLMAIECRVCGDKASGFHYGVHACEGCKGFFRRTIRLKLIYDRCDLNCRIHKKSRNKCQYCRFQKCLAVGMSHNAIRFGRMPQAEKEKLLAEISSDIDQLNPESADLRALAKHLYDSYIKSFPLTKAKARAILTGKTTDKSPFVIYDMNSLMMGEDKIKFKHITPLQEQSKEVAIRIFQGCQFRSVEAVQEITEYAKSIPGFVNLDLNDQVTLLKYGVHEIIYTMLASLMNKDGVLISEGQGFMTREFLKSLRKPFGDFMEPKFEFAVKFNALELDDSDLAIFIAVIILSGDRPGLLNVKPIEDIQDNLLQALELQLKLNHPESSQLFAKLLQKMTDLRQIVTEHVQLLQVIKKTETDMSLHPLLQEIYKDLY
T1 sequence (P19793 1-462 partner): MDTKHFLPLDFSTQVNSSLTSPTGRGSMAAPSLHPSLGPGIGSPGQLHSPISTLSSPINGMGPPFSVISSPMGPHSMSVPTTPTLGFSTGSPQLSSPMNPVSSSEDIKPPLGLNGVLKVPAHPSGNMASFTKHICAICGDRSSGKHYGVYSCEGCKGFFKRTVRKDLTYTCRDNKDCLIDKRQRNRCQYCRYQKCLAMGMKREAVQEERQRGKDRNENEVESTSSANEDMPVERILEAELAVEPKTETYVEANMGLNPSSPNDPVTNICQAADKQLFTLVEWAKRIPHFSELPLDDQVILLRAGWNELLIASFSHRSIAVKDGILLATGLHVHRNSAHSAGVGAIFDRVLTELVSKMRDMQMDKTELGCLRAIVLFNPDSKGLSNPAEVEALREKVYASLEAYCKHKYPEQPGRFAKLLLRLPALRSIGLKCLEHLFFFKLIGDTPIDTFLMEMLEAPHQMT
Outline: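 CHO-K1 cells stably carrying PPARγ, RXRα and a 4ERPP luciferase reporter were treated with compound for 1 day at 37 °C in F12 medium with 0.1% fatty acid-free BSA. Luciferase activity was read and scaled between no compound (0%) and reference agonist compound X at 1 μM (100%).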

[2] = molecular target: T2, human AT1 receptor (Homo sapiens, UniProt P30556); test: Binding assay using human AT1 receptor-expressing CHO-K1 cell membrane fraction ([125I]-angiotensin II); settings: 22.5 pM [125I]-angiotensin II, 9 μg AT1 membrane, 1 hr room temperature; read-out: AT1 receptor binding inhibitory action (IC50 (nM))
T2 construct: expressed in transfected cells; host or cells: CHO-K1
T2 sequence (P30556 1-359): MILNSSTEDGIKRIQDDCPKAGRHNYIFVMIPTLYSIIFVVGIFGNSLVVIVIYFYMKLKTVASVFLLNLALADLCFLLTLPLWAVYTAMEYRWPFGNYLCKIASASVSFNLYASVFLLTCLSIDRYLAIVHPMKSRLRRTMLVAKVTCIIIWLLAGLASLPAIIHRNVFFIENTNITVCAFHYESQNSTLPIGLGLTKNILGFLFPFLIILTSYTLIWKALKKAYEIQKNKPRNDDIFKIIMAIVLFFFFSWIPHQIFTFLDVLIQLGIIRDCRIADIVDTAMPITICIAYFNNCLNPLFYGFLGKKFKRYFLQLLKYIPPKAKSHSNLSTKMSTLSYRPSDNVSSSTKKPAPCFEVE
Outline: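 CHO-K1 membranes stably expressing AT1 (9 μg) incubated with 22.5 pM [125I]-angiotensin II and compound in 50 mM Tris pH 7.4, 10 mM MgCl2, with or without 0.3 mg/mL fatty acid-free BSA, 1 hr at room temperature. Bound radioactivity counted after GF/C filtration; nonspecific binding with 1 μM CV-11974; IC50 calculated.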

| SMILES | activation at 1 µM [1] [%] | IC50 [2] [nM] |
| --- | --- | --- |
| CCCCc1nc(C)n(-c2ccc3c(c2)CC(C)(C)O3)c(=O)c1Cc1ccc(-c2ccccc2-c2nsc(=O)[nH]2)cc1 [Example 128, 6-butyl-3-(2,2-dimethyl-2,3-dihydro-1-benzofuran-5-yl)-2-methyl-5-{[2′-(5-oxo-4,5-dihydro-1,2,4-thiadiazol-3-yl)biphenyl-4-yl]methyl}pyrimidin-4(3H)-one] | 24.3 | 1.9 |
| CCCc1nc(C)n(-c2ccc(OC3CCC3)c(F)c2)c(=O)c1Cc1ccc(-c2ccccc2-c2noc(=O)[nH]2)cc1 [Example 318, 3-[4-(cyclobutyloxy)-3-fluorophenyl]-2-methyl-5-{[2′-(5-oxo-4,5-dihydro-1,2,4-oxadiazol-3-yl)biphenyl-4-yl]methyl}-6-propylpyrimidin-4(3H)-one] | 19.2 | 1.8 |
| CCCc1nc(OC)n(-c2ccc(OC(C)C)cc2)c(=O)c1Cc1ccc(-c2ccccc2-c2noc(O)n2)cc1 [Example 368, 3-(4-isopropoxyphenyl)-2-methoxy-5-{[2′-(5-oxo-4,5-dihydro-1,2,4-oxadiazol-3-yl)biphenyl-4-yl]methyl}-6-propylpyrimidin-4(3H)-one] | 50.2 | 2 |
| CCCc1nc(C)n(-c2ccc(OC3CC3)cc2)c(=O)c1Cc1ccc(-c2ccccc2-c2noc(=O)[nH]2)cc1 [Example 265, 3-[4-(cyclopropyloxy)phenyl]-2-methyl-5-{[2′-(5-oxo-4,5-dihydro-1,2,4-oxadiazol-3-yl)biphenyl-4-yl]methyl}-6-propylpyrimidin-4(3H)-one] | 27.8 | 1.7 |
| CCCCc1nc(C)n(CC2CCCCO2)c(=O)c1Cc1ccc(-c2ccccc2-c2noc(=O)[nH]2)cc1 (centres unmarked) [Example 160, 6-butyl-2-methyl-5-{[2′-(5-oxo-4,5-dihydro-1,2,4-oxadiazol-3-yl)biphenyl-4-yl]methyl}-3-(tetrahydro-2H-pyran-2-ylmethyl)pyrimidin-4(3H)-one] | 61.6 | 1.8 |
| CCCc1nc(CC)c(-c2ccc(OC(C)C)cc2F)c(=O)n1Cc1ccc(-c2ccccc2-c2noc(O)n2)cc1 [Example 458, 6-ethyl-5-(2-fluoro-4-isopropoxyphenyl)-3-{[2′-(5-oxo-4,5-dihydro-1,2,4-oxadiazol-3-yl)biphenyl-4-yl]methyl}-2-propylpyrimidin-4(3H)-one] | 36 | 2.2 |
| CCCCc1nc(C)n(-c2ccc(C)c(C)c2)c(=O)c1Cc1ccc(-c2ccccc2-c2noc(=O)[nH]2)cc1 [Example 202, 6-butyl-3-(3,4-dimethylphenyl)-2-methyl-5-{[2′-(5-oxo-4,5-dihydro-1,2,4-oxadiazol-3-yl)biphenyl-4-yl]methyl}pyrimidin-4(3H)-one] | 25.3 | 1.5 |
| CCCCc1nc(C)n(Cc2cccs2)c(=O)c1Cc1ccc(-c2ccccc2-c2noc(=O)[nH]2)cc1 [Example 32, 6-butyl-2-methyl-5-{[2′-(5-oxo-4,5-dihydro-1,2,4-oxadiazol-3-yl)biphenyl-4-yl]methyl}-3-(2-thienylmethyl)pyrimidin-4(3H)-5 one] | 55.6 | 1.3 |
| CCCc1nc(CC)n(-c2ccc(OC(C)(C)COC)cc2)c(=O)c1Cc1ccc(-c2ccccc2-c2noc(=O)[nH]2)cc1 [Example 376, 2-ethyl-3-[4-(2-methoxy-1,1-dimethylethoxy)phenyl]-5-{[2′-(5-oxo-4,5-dihydro-1,2,4-oxadiazol-3-yl)biphenyl-4-yl]methyl}-6-propylpyrimidin-4(3H)-one] | 22 | 1.7 |
| CCCc1nc(CC)n(-c2ccc(OC(C)(C)CO)cc2)c(=O)c1Cc1ccc(-c2ccccc2-c2noc(=O)[nH]2)cc1 [Example 377, 2-ethyl-3-[4-(2-hydroxy-1,1-dimethylethoxy)phenyl]-5-{[2′-(5-oxo-4,5-dihydro-1,2,4-oxadiazol-3-yl)biphenyl-4-yl]methyl}-6-propylpyrimidin-4(3H)-one] | 30.3 | 1.5 |
| CCCc1nc(C)n(-c2ccc(OC(C)CC)cc2)c(=O)c1Cc1ccc(-c2ccccc2-c2noc(=O)[nH]2)cc1 (centres unmarked) [Example 271, 3-(4-sec-butoxyphenyl)-2-methyl-5-{[2′-(5-oxo-4,5-dihydro-1,2,4-oxadiazol-3-yl)biphenyl-4-yl]methyl}-6-propylpyrimidin-4(3H)-one] | 37.1 | 1.9 |
| CCCCc1nc(C)n(-c2ccc3c(c2)CC(C)(C)O3)c(=O)c1Cc1ccc(-c2ccccc2-c2noc(O)n2)cc1 [Example 234, 6-butyl-3-(2,2-dimethyl-2,3-dihydro-1-benzofuran-5-yl)-2-methyl-5-{[2′-(5-oxo-4,5-dihydro-1,2,4-oxadiazol-3-yl)biphenyl-4-yl]methyl}pyrimidin-4(3H)-one] | 33.9 | 1.2 |
| CCCc1nc(C)n(-c2ccc3c(c2)C(=O)CC(C)(C)O3)c(=O)c1Cc1ccc(-c2ccccc2-c2noc(=O)[nH]2)cc1 [Example 145, 3-(2,2-dimethyl-4-oxo-3,4-dihydro-2H-chromen-6-yl)-2-methyl-5-{[2′-(5-oxo-4,5-dihydro-1,2,4-oxadiazol-3-yl)biphenyl-4-yl]methyl}-6-propylpyrimidin-4(3H)-one] | 36.5 | 1.8 |
| CCCc1nc(CC)c(-c2ccc(OC(C)(C)CO)cc2)c(=O)n1Cc1ccc(-c2ccccc2-c2noc(O)n2)cc1 [Example 512, 6-ethyl-5-[4-(2-hydroxy-1,1-dimethylethoxy)phenyl]-3-{[2′-(5-oxo-4,5-dihydro-1,2,4-oxadiazol-3-yl)biphenyl-4-yl]methyl}-2-propylpyrimidin-4(3H)-one] | 20.3 | 1.3 |
| CCOc1nc(C)c(Cc2ccccc2)c(=O)n1Cc1ccc(-c2ccccc2-c2noc(=O)[nH]2)cc1 [Example 4, 5-benzyl-2-ethoxy-6-methyl-3-{[2′-(5-oxo-4,5-dihydro-1,2,4-oxadiazol-3-yl)biphenyl-4-yl]methyl}pyrimidin-4(3H)-one] | 35.8 | 1.9 |
| CCCc1nc(CC)c(-c2ccc(OC(C)C)nc2)c(=O)n1Cc1ccc(-c2ccccc2-c2noc(O)n2)cc1F [Example 467, 6-ethyl-3-{[3-fluoro-2′-(5-oxo-4,5-dihydro-1,2,4-oxadiazol-3-yl)biphenyl-4-yl]methyl}-5-(6-isopropoxypyridin-3-yl)-2-propylpyrimidin-4(3H)-one] | 35.7 | 2.5 |
| CCCCc1nc(C)n(Cc2ccccc2)c(=O)c1Cc1ccc(-c2ccccc2-c2noc(=O)[nH]2)cc1 [Example 47, 3-benzyl-6-butyl-2-methyl-5-{[2′-(5-oxo-4,5-dihydro-1,2,4-oxadiazol-3-yl)biphenyl-4-yl]methyl}pyrimidin-4(3H) -one] | 61.2 | 1.4 |
| CCCc1nc(C)n(-c2ccc(OC(C)C)nc2)c(=O)c1Cc1ccc(-c2ccccc2-c2noc(=O)[nH]2)cc1 [Example 325, 3-(6-isopropoxypyridin-3-yl)-2-methyl-5-{[2′-(5-oxo-4,5-dihydro-1,2,4-oxadiazol-3-yl)biphenyl-4-yl]methyl}-6-propylpyrimidin-4(3H)-one] | 30.2 | 3.4 |
| CCCc1nc(CC)n(-c2ccc(OC(C)C)nc2)c(=O)c1Cc1ccc(-c2ccccc2-c2noc(=O)[nH]2)cc1 [Example 373, 2-ethyl-3-(6-isopropoxypyridin-3-yl)-5-{[2′-(5-oxo-4,5-dihydro-1,2,4-oxadiazol-3-yl)biphenyl-4-yl]methyl}-6-propylpyrimidin-4(3H)-one] | 48.4 | 2.4 |
